Consider 3 compounds from ChEMBL document CHEMBL5465560, “Selectivity Literature for EUbOPEN Chemogenomic Library” (2024).

Assay [1] concerns the target T1, Histone-lysine N-methyltransferase EHMT1 (Homo sapiens) (UniProt Q9H9B1).
T1 sequence (whole entry): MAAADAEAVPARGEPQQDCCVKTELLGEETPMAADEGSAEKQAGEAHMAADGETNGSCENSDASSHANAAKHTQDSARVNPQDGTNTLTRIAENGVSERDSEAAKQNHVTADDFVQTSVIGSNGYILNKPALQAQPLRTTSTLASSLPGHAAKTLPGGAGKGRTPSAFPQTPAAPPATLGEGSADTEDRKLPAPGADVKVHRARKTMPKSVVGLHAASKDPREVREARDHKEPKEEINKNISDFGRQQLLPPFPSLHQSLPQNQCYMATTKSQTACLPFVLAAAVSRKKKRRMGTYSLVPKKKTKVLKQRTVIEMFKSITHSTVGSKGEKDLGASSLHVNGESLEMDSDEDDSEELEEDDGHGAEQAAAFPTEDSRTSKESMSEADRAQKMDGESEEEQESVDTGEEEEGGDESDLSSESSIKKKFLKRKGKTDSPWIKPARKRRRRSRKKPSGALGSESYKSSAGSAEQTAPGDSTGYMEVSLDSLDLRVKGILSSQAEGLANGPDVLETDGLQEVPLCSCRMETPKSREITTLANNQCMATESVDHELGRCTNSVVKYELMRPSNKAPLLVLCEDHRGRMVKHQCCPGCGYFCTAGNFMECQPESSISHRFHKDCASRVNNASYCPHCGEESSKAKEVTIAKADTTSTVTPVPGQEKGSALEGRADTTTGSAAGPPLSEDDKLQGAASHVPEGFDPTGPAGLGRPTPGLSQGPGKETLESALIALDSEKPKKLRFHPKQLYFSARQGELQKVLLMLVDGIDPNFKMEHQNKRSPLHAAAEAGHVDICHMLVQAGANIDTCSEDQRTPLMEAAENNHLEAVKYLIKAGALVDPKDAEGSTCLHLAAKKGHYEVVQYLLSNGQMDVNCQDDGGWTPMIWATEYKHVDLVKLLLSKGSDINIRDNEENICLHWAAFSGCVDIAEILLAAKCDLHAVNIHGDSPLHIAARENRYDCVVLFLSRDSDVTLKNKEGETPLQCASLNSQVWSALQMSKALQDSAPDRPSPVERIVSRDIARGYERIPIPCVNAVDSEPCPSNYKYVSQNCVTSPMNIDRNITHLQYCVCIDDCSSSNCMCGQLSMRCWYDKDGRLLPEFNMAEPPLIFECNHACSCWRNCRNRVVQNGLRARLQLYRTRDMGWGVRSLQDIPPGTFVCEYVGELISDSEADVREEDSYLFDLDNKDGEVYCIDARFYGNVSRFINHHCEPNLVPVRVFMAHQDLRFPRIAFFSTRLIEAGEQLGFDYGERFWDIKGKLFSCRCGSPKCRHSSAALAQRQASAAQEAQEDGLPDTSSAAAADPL
The assay is described as follows: Selectivity interaction (Methyltransferase screen (radiometric assays, panel of 8 PRMTs, 21 protein lysine methyltransferases, 3 DNA methyltransferases, and one RNA methyltransferase)) EUB0000271b EHMT1.

Assay [2] concerns the target T2, Ephrin type-B receptor 3 (Homo sapiens) (UniProt P54753).
T2 sequence (whole entry): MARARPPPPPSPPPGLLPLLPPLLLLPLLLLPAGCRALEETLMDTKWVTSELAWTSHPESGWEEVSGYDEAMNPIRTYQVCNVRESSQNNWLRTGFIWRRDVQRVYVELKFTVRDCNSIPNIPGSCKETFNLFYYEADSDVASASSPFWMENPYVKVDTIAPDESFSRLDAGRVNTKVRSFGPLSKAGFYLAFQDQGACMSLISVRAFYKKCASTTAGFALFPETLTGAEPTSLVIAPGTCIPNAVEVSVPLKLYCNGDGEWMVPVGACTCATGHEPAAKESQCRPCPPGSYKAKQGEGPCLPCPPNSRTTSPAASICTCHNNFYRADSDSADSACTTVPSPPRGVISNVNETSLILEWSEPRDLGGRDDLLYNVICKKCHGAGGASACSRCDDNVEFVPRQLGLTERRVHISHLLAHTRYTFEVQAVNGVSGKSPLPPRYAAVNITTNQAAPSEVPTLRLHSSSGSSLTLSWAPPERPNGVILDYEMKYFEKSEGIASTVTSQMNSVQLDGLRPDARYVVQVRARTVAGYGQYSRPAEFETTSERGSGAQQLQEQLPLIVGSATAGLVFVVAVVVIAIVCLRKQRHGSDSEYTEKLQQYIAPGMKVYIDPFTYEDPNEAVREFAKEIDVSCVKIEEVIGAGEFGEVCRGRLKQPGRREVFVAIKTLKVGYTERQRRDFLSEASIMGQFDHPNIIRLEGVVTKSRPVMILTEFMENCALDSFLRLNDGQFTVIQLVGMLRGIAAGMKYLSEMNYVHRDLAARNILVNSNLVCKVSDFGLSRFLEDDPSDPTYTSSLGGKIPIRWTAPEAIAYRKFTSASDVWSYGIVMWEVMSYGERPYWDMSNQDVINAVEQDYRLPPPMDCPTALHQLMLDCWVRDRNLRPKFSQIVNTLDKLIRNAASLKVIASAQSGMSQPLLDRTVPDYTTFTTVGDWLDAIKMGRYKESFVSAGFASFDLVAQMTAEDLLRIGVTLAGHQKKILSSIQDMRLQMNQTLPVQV
The assay is described as follows: Selectivity interaction (KinomeScan (DiscoverX)) EUB0000045b EPHB3.

The target of assay [3] is Fibroblast growth factor receptor 3 (Homo sapiens, UniProt P22607). In words: Selectivity interaction (Kinase panel (Invitrogen)) EUB0000639a FGFR3. As to conditions: at 200 nM.
Sequence of Fibroblast growth factor receptor 3 (P22607 23-806 limits assumed): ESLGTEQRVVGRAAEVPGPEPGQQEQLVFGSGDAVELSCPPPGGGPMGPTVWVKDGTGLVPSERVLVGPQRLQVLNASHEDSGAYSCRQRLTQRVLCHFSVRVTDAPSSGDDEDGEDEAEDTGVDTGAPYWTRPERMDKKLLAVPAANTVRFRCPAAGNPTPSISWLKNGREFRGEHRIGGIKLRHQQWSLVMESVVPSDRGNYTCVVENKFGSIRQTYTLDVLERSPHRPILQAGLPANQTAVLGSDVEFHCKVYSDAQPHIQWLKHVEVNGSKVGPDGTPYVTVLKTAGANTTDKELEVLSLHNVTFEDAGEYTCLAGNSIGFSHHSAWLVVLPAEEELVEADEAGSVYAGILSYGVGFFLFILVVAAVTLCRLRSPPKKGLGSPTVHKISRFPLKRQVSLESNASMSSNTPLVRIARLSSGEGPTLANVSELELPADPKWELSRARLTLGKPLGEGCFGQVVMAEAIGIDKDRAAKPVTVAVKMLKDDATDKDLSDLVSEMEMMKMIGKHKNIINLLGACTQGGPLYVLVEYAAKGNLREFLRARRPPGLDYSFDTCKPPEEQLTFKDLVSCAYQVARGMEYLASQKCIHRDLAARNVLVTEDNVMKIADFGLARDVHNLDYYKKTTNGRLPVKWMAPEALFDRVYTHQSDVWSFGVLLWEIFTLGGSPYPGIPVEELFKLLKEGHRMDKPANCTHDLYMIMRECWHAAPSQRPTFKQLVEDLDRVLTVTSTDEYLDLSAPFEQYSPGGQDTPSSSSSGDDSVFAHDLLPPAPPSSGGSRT

`Cc1cc(C)cc([C@@H]2c3cc(C)ccc3NC(=O)CN2C(=O)c2ccc(Br)s2)c1`: the % of activity in assay [1] (at 1 µM) and in assay [1] (at 10 µM) was 99% each time. Turning to `C=CC(=O)Nc1cc(-n2c(=O)ccc3cnc4ccc(-c5ccc(NS(C)(=O)=O)cc5)cc4c32)ccc1C`, the % of control amounted to 83% in assay [2] (at 1 µM) and 88% in assay [2] (at 10 µM). Take `CC[C@@H]1[C@H](F)C(=O)N[C@@H]1COc1nccc2cc(C(N)=O)c(OC)cc12` [ZIMLOVISERTIB]: the % of inhibition in assay [3] is -0.438%.
